Data taken from article PMC12302228 (RSC Medicinal Chemistry, 2025).
Converted amounts (≈) assume the structure as drawn. Read-outs that look alike come from different tables or passages of the source.

Key:
THP-1 = assay: Antiproliferative activity, MTT assay; assay type: cell-based, human; conditions: mean ± SEM
MCF7 = assay: Antiproliferative activity, SRB assay; assay type: cell-based, human; conditions: mean ± SEM
M21 = assay: Antiproliferative activity, SRB assay; assay type: cell-based, human; conditions: mean ± SEM
MOLM-13 cells = assay: Differentiation of AML cells, CD11b/CD14 flow cytometry; assay type: cell-based, human; conditions: 120 h at 2-fold IC50
HT-29 = assay: Antiproliferative activity, SRB assay; assay type: cell-based, human; conditions: mean ± SEM
MOLM-13 = assay: Antiproliferative activity, MTT assay; assay type: cell-based, human; conditions: read-out: IC50 MOLM-13; 48 h of treatment; mean ± SEM
physchem = conditions: ultrapure water, 37 °C, kinetic from dmso stock
HL-60 = assay: Antiproliferative activity, MTT assay; assay type: cell-based, human; conditions: mean ± SEM
HT-1080 = assay: Antiproliferative activity, SRB assay; assay type: cell-based, human; conditions: read-out: IC50 HT-1080; 48 h of treatment; mean ± SEM
[1] = Metabolic stability in liver microsomes; assay type: in vitro ADME; conditions: rat, pH 7.4
human DHODH = human DHODH (Homo sapiens, UniProt Q02127); assay: Human DHODH colorimetric; assay type: biochemical
THP-1 cells = assay: Differentiation of AML cells, CD11b/CD14 flow cytometry; assay type: cell-based, human; conditions: 120 h
[2] = Metabolic stability in liver microsomes; assay type: in vitro ADME; conditions: human, pH 7.4
[3] = Metabolic stability in liver microsomes; assay type: in vitro ADME, mouse; conditions: for half-life at 4 µM / microsomal CLint at 4 µM: mouse, liver microsomes, pH 7.4; for Clearance category MLM: ranked by CLint
histone H2AX = assay: H2AX phosphorylation, immunofluorescence in M21 cells; assay type: cell-based, human; conditions: 24 h at 2-fold IC50
[4] = Homo sapiens, MCF7, 48 h, read-out: IC50 MCF7, 48 h of treatment
[5] = Homo sapiens, M21, 48 h, read-out: IC50 M21, 48 h of treatment
[6] = Homo sapiens, HT-29, 48 h, read-out: IC50 HT-29, 48 h of treatment
[7] = read-out: IC50 THP-1, 48 h of treatment
[8] = read-out: IC50 MCF7, 48 h of treatment
[9] = read-out: IC50 HL-60, 48 h of treatment
[10] = read-out: IC50 M21, 48 h of treatment
[11] = read-out: IC50 HT-29, 48 h of treatment
[12] = Homo sapiens, HL-60, 48 h, read-out: IC50 HL-60, 48 h of treatment

Sequence of human DHODH (Q02127 whole entry): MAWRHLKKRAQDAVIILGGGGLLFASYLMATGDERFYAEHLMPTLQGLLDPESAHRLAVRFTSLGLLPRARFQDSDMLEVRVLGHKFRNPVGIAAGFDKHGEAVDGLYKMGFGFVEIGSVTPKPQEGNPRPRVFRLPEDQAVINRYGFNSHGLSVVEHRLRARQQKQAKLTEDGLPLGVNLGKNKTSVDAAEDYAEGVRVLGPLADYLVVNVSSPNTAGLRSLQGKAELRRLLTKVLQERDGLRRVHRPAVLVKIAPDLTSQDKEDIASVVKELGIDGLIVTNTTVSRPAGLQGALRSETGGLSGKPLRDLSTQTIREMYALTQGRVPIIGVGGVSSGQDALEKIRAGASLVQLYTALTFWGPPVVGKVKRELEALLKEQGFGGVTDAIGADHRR

Structure (SMILES) | IC50 (MOLM-13) [µM] | IC50 (THP-1; [7]) [µM] | IC50 (MCF7; [8]) [µM] | solubility at 24 h (physchem) [µg/mL] | IC50 (HL-60; [9]) [µM] | IC50 (M21; [10]) [µM] | IC50 (HT-1080) [µM] | IC50 (HT-29; [11]) [µM] | Phosphorylation of H2AX into γH2AX (γH2AX foci) (histone H2AX) | other results
Cc1c(-c2ccc(-c3ccccc3F)cc2)nc2ccc(F)cc2c1C(=O)O [Brequinar, reference compound] | – | – | – | – | – | – | – | – | – | IC50 (THP-1; Homo sapiens, THP-1, 48 h, read-out: IC50 THP-1, 48 h of treatment): 0.17 ± 0.04 µM; IC50 (MCF7; [4]): 3.8 ± 0.9 µM; IC50 (M21; [5]): 0.46 ± 0.05 µM; CD11b expression, share of the cell population (MOLM-13 cells): 34%; IC50 (HT-29; [6]): 0.69 ± 0.07 µM
CCNC(=O)Nc1ccc(S(=O)(=O)Oc2cnccc2I)cc1.Cl [Compound 31, 4-Iodopyridin-3-yl 4-(3-ethylureido)benzenesulfonate hydrochloride] | 1.4 ± 0.4 | 2.2 ± 0.3 | 19 ± 3 | 165 ± 3 | 32 ± 9 | 11 ± 1 | 5.3 ± 0.4 | 11 ± 1 | – | –
CCNC(=O)Nc1ccc(S(=O)(=O)Oc2cccnc2C(C)C)cc1.Cl [Compound 21, 2-Isopropylpyridin-3-yl 4-(3-ethylureido)benzenesulfonate hydrochloride] | – | 6 ± 2 | – | 188 ± 1 | – | – | – | – | promote the phosphorylation of H2AX into γH2AX | half-life at 4 µM [1]: 2.5 ± 0.5 h; microsomal CLint at 4 µM [1]: 11 ± 2 µL/min/mg; IC50 (human DHODH): 0.012 µM; IC50 (MCF7; [4]): 24 ± 3 µM; CD11b and CD14 positivity, share of the cell population (THP-1 cells): 57%; IC50 (HL-60; [12]): 50 ± 10 µM; half-life at 4 µM [2]: 1.48 ± 0.0333 h; microsomal CLint at 4 µM [2]: 15.7 ± 0.3 µL/min/mg; IC50 (M21; [5]): 11 ± 1 µM; half-life at 4 µM [3]: 0.95 ± 0.0667 h; microsomal CLint at 4 µM [3]: 25 ± 2 µL/min/mg; Clearance category MLM [3]: medium (medium clearance category for MLM (13.1 < CLint < 71.1)); CD11b expression, share of the cell population (MOLM-13 cells): 26%; IC50 (HT-29; [6]): 8 ± 0.3 µM
Cl.O=C(NCCCl)Nc1ccc(S(=O)(=O)Oc2cccnc2Br)cc1 [Compound 27, 2-Bromopyridin-3-yl 4-(3-(2-chloroethyl)ureido)benzenesulfonate hydrochloride] | 4.8 ± 0.7 | 4.9 ± 0.3 | 16 ± 1 | 189 ± 5 | > 50 | 30 ± 2 | 5.5 ± 0.4 | 33 ± 1 | – | –
CCNC(=O)Nc1ccc(S(=O)(=O)Oc2cccnc2I)cc1.Cl [Compound 20, 2-Iodopyridin-3-yl 4-(3-ethylureido)benzenesulfonate hydrochloride] | – | 1.1 ± 0.5 | – | 190 ± 10 | – | – | – | – | promote the phosphorylation of H2AX into γH2AX | half-life at 4 µM [1]: 3.17 ± 0.333 h; microsomal CLint at 4 µM [1]: 7.4 ± 0.6 µL/min/mg; IC50 (human DHODH): 0.031 µM; IC50 (MCF7; [4]): 12 ± 1 µM; IC50 (HL-60; [12]): 37 ± 6 µM; half-life at 4 µM [2]: 3.6 ± 0.167 h; microsomal CLint at 4 µM [2]: 6.5 ± 0.3 µL/min/mg; IC50 (M21; [5]): 7.7 ± 0.7 µM; half-life at 4 µM [3]: 1.33 ± 0.167 h; microsomal CLint at 4 µM [3]: 18 ± 2 µL/min/mg; Clearance category MLM [3]: medium (medium clearance category for MLM (13.1 < CLint < 71.1)); CD11b expression, share of the cell population (MOLM-13 cells): 38%; IC50 (HT-29; [6]): 6.8 ± 0.6 µM
CCNC(=O)Nc1ccc(S(=O)(=O)Oc2cccnc2I)cc1 [Compound 2, 2-Iodopyridin-3-yl 4-(3-ethylureido)benzenesulfonate] | 0.9 ± 0.3 | 3.8 ± 0.6 | 11 ± 1 | 57 ± 3 (≈ 127 µM) | 25 ± 4 | 13 ± 2 | 1.4 ± 0.1 | 10.6 ± 0.9 | promote the phosphorylation of H2AX into γH2AX | –
CCNC(=O)Nc1ccc(S(=O)(=O)Oc2cccnc2C)cc1 [Compound 4, 2-Methylpyridin-3-yl 4-(3-ethylureido)benzenesulfonate] | 6 ± 2 | 4.4 ± 0.2 | 20 ± 3 | 55 ± 1 (≈ 164 µM) | 50 ± 10 | 79 ± 4 | 10.2 ± 0.8 | 56 ± 3 | – | –
CCCNC(=O)Nc1ccc(S(=O)(=O)Oc2cnccc2C)cc1.Cl [Compound 35, 4-Methylpyridin-3-yl 4-(3-propylureido)benzenesulfonate hydrochloride] | 9.2 ± 0.8 | 5 ± 2 | 58 ± 8 | 138 ± 2 | 16.3 ± 0.1 | 56 ± 3 | 21 ± 2 | 39 ± 2 | – | –
CC(C)c1ncccc1OS(=O)(=O)c1ccc(NC(=O)NCCCl)cc1.Cl [Compound 29, 2-Isopropylpyridin-3-yl 4-(3-(2-chloroethyl)ureido)benzenesulfonate hydrochloride] | 2.5 ± 0.9 | 2.6 ± 0.9 | 14 ± 1 | 126 ± 5 | 13 ± 4 | 9.7 ± 0.5 | 3.3 ± 0.2 | 10.5 ± 0.5 | – | –
CCNC(=O)Nc1ccc(S(=O)(=O)Oc2cccnc2Br)cc1 [Compound 1, 2-Bromopyridin-3-yl 4-(3-ethylureido)benzenesulfonate] | 1.1 ± 0.2 | 7 ± 1 | 31 ± 3 | 64 ± 1 (≈ 160 µM) | 40 ± 10 | 12 ± 1 | 2.1 ± 0.3 | 9.7 ± 0.7 | – | –
CCNC(=O)Nc1ccc(S(=O)(=O)Oc2cccnc2C(C)C)cc1 [Compound 3, 2-Isopropylpyridin-3-yl 4-(3-ethylureido)benzenesulfonate] | 0.8 ± 0.2 | 1.5 ± 0.3 | 19 ± 2 | 40 ± 3 (≈ 110 µM) | 29 ± 6 | 7 ± 1 | 1.2 ± 0.2 | 8.4 ± 0.7 | promote the phosphorylation of H2AX into γH2AX | –
CCCNC(=O)Nc1ccc(S(=O)(=O)Oc2cccnc2I)cc1 [Compound 6, 2-Iodopyridin-3-yl 4-(3-propylureido)benzenesulfonate] | 2.2 ± 0.3 | 2.4 ± 0.1 | 13 ± 1 | 23 ± 2 (≈ 49.9 µM) | 24 ± 5 | 17 ± 1 | 2 ± 0.2 | 16 ± 1 | – | –
